In ChEMBL document CHEMBL1201862, “PubChem BioAssay data set” (2004):
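1) Cells in 96-well plates. 2) Compound, 48 h, 5 concentrations. 3) Linear interpolation between surrounding doses. 4) Unreached endpoint = highest concentration. At the GI50, growth is halved.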 Active and inactive are the calls of the source. No stated cut-off is given here; in the data, active = GI50 up to about 1.1 µM and inactive = higher.

How the values were obtained:
Assay in all cases: growth of human tumour cells (NCI), 48 h
SR = system: SR
NCI-H460 = system: NCI-H460
SN12C = system: SN12C
HOP-62 = system: HOP-62
COLO 205 = system: COLO 205
HCT-15 = system: HCT-15
IGROV-1 = system: IGROV-1
MDA-N = system: MDA-N
OVCAR-5 = system: OVCAR-5
SNB-75 = system: SNB-75
T47D = system: T47D
UACC-257 = system: UACC-257
KM12 = system: KM12
LOX IMVI = system: LOX IMVI
NCI-H23 = system: NCI-H23
SK-MEL-28 = system: SK-MEL-28
Malme-3M = system: Malme-3M
SK-MEL-5 = system: SK-MEL-5
786-0 = system: 786-0
BT-549 = system: BT-549

In the case of `O=C(O)c1ccccc1-c1ccccc1C(=O)c1ccccc1`, the GI50 (SR) was > 100 µM (inactive), the GI50 (NCI-H460) was > 100 µM (inactive) and the GI50 (SN12C) was > 100 µM (inactive). For the same compound, the GI50 (HOP-62) was > 100 µM (inactive), the GI50 (COLO 205) was > 100 µM (inactive) and the GI50 (HCT-15) was over 100 µM. For the same compound, the GI50 (IGROV-1) was > 100 µM (inactive), the GI50 (MDA-N) was > 100 µM (inactive) and the GI50 (OVCAR-5) was > 100 µM (inactive). The GI50 (SNB-75) was > 100 µM (inactive), the GI50 (T47D) was > 100 µM (inactive) and the GI50 (UACC-257) was > 100 µM (inactive). The GI50 (KM12) was > 100 µM (inactive), the GI50 (LOX IMVI) was > 100 µM (inactive) and the GI50 (NCI-H23) was > 100 µM (inactive). The GI50 (SK-MEL-28) was > 100 µM (inactive), the GI50 (Malme-3M) was > 100 µM (inactive) and the GI50 (SK-MEL-5) was > 100 µM (inactive). For the same compound, the GI50 (786-0) was > 100 µM (inactive) and the GI50 (BT-549) was > 100 µM (inactive).
For `Nc1ccc2c(SCC(=O)Nc3ccccc3-c3ccccc3NC(=O)CSc3c4ccccc4nc4cc(N)ccc34)c3ccccc3nc2c1`, the GI50 (SR) was 4.19 µM (inactive), the GI50 (NCI-H460) was 29.2 µM (inactive) and the GI50 (SN12C) was 28.5 µM (inactive). The GI50 (HOP-62) was 33.7 µM (inactive), the GI50 (COLO 205) was 14.2 µM (inactive) and the GI50 (HCT-15) was 31.1 µM. The GI50 (IGROV-1) was 27 µM (inactive), the GI50 (MDA-N) was 44.5 µM (inactive) and the GI50 (OVCAR-5) was 70 µM (inactive). The GI50 (SNB-75) was 38.5 µM (inactive), the GI50 (T47D) was 3.05 µM (inactive) and the GI50 (UACC-257) was 24.4 µM (inactive). The GI50 (KM12) was 19.5 µM (inactive), the GI50 (LOX IMVI) was 22.9 µM (inactive) and the GI50 (NCI-H23) was 18 µM (inactive). For the same compound, the GI50 (SK-MEL-28) was 21.8 µM (inactive), the GI50 (Malme-3M) was 22.9 µM (inactive) and the GI50 (SK-MEL-5) was 14.6 µM (inactive). For the same compound, the GI50 (786-0) was 25.3 µM (inactive) and the GI50 (BT-549) was 42 µM (inactive).
